Assay results reported in ChEMBL document CHEMBL5308504, “Tm Shift (DSF) assay results for EUbOPEN Chemogenomics Library” (2023).
Several values for one entry are separate records, joined by “and”; a condition that tells them apart may be missing. Equal entries are not always repeated.

Assays:
[1] = target: T1, Peregrin (Homo sapiens) (UniProt P55201); conditions: Compound concentration 20.0 uM, Protein concentration 2.0 uM, Result type QC Liability
T1 sequence (whole entry): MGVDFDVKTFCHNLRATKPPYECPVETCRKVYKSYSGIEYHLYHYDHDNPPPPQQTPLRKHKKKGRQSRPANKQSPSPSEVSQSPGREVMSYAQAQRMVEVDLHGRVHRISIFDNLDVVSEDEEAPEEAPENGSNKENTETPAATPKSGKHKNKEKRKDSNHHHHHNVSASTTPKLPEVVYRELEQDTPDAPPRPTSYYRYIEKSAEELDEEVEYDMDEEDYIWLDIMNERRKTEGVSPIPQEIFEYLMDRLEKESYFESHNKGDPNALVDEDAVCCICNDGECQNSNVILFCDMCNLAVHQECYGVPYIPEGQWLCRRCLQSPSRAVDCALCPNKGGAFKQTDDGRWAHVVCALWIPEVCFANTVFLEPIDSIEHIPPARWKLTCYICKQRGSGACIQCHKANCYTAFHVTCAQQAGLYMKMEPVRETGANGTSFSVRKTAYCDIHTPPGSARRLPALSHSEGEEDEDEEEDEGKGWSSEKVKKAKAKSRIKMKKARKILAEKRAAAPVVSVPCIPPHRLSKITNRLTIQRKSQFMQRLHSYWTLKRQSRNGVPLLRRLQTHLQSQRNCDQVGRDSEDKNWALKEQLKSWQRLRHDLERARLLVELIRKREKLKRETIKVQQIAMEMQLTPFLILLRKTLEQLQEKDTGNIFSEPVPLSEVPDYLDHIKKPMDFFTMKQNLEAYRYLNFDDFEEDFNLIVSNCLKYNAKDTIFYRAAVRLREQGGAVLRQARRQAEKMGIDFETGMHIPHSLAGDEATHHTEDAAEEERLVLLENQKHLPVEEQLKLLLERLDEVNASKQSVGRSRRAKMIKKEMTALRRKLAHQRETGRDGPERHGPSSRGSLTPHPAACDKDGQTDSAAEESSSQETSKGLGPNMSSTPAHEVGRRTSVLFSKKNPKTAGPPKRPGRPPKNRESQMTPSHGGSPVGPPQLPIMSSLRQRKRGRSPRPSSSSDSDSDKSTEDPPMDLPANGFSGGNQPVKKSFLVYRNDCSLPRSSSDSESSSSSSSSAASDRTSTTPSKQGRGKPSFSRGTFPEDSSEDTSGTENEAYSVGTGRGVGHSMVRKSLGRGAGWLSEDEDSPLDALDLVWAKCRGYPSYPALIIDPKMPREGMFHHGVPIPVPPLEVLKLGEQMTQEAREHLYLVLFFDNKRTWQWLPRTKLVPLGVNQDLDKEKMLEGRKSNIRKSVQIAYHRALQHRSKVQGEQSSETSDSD

[2] = target: Fibroblast growth factor receptor 3 (Homo sapiens) (UniProt P22607); conditions: Compound concentration 20.0 uM, Protein concentration 2.0 uM, Result type QC Liability
Sequence of Fibroblast growth factor receptor 3 (Homo sapiens) (P22607 23-806 limits assumed): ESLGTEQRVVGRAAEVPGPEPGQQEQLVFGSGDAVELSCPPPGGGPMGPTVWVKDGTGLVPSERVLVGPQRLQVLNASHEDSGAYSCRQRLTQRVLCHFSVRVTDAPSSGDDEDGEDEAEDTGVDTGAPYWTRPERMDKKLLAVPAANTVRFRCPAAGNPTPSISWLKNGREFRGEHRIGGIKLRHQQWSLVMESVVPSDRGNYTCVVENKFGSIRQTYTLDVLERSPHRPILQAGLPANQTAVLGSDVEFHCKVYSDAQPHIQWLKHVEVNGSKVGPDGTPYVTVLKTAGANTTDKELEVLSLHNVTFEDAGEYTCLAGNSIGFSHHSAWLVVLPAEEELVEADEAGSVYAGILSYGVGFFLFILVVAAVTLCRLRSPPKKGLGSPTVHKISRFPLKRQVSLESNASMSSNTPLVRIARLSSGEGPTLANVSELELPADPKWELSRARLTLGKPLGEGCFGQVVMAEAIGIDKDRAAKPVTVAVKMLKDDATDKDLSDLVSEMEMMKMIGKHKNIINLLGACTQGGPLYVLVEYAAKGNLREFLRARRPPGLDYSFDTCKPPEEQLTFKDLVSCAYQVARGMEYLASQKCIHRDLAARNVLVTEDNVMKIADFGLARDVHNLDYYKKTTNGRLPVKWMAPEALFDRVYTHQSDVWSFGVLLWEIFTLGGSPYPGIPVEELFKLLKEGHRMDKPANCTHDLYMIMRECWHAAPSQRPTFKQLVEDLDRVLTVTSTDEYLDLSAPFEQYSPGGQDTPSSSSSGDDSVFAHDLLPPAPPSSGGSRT
Description: Thermal Shift Assay. Domain: start/stop: P449-E759

SMILES | ΔTm [1] | ΔTm [2]
CN(C1CCc2c(c3ccccc3n2CC(=O)O)C1)S(=O)(=O)c1ccc(F)cc1 (centres undefined) | -2.54 °C | 0.46 °C
CCCCCCC(Sc1nc(Cl)cc(NCc2ccc(-c3ccccc3)cc2)n1)C(=O)O (centres undefined) | -6.38 °C | 0.79 °C
CCCCc1c(-c2ccccc2)nc(N)nc1-c1ccc(OCc2ccccc2)c(F)c1F | -4.97 °C | -0.31 °C
CCNc1ccc(-c2nn(-c3ccccc3C)c3c2C(C)Cc2nc(NC(=O)OC)sc2-3)cn1 (centres undefined) | -1.43 °C | 0.96 °C
CCn1c(-c2nonc2N)nc2cncc(C(=O)N3CC[C@H](N)C3)c21 | -1.78 °C | 0.35 °C
O=C(NCCN1CCC2(CC1)C(=O)NCN2c1cccc(F)c1)c1ccc2ccccc2c1 | -3.2 °C | 0.36 °C
Cc1cc(-c2nc(-c3ccc(OC(F)(F)F)cc3)no2)nn1Cc1ccnc(N2CCN(C3CC3)CC2)c1 | -10.7 °C | 1.28 °C
Cc1ccc(C(=O)Nc2cc(N3CCN(C)CC3)cc(C(F)(F)F)c2)cc1-n1cc(-c2cnn(C)c2C)nn1 | -0.61 °C | 3.8 °C
COP(=O)(CCC(N)C(=O)O)Oc1cccc(CC(=O)O)c1 (centres undefined) | -1.49 °C | 0.51 °C
O=C(NC[C@@H]1[C@H]2CN(C(=O)OCc3cc(C(F)(F)F)cc(C(F)(F)F)c3)C[C@@H]12)c1ccc2[nH]nnc2c1 | -0.49 °C | 1.51 °C
CN1C(=O)c2c(nn(Cc3ccc(-c4cccc(F)n4)cc3)c2Nc2ccccc2)N2C1=N[C@@H]1CCC[C@@H]12 | -3.07 °C | -0.44 °C
C[C@@H](CO)CCC[C@@H](C)[C@H]1CC[C@H]2[C@@H]3CC=C4C[C@@H](O)CC[C@]4(C)[C@H]3CC[C@]12C | -1.97 °C | 0.9 °C
CCO[C@@H](Cc1ccc(OCCc2ccc(OS(C)(=O)=O)cc2)cc1)C(=O)O | -1.83 °C | 0.52 °C
Oc1c(CN2CCCC2)cc(COCc2ccccc2)c2cccnc12 | -2.08 °C | 0.61 °C
COc1cc(CN(CCN)C(=O)N[C@@H](C)c2ccccc2)ccc1OCc1ccccc1 | -2.05 °C | 0.47 °C
CN(c1ccc(C(F)(F)F)cc1)S(=O)(=O)c1ccc(C(=O)Nc2nc(-c3ccccn3)cs2)cc1 | 7.54 °C | 8.54 °C
Cc1cccc(-c2nn3c(c2-c2ccnc4ccc(C(N)=O)cc24)CCC3)n1 | -0.93 °C | 1.13 °C
CCOc1ccc(S(=O)(=O)Nc2ccc(Cl)cc2C#Cc2cnc(C(=O)O)cc2OC)c2ncccc12 | -1.33 °C | -5.78 °C
CC(=O)c1c(C)c2cnc(Nc3ccc(N4CCN(CCOCCOCCOCCNC(=O)COc5cccc6c5C(=O)N(C5CCC(=O)NC5=O)C6=O)CC4)cn3)nc2n(C2CCCC2)c1=O (centres undefined) | -1.99 °C | 0.48 °C
CC1CCN(c2ccnc(NCc3cn(C)cn3)n2)CC1 | -2.32 °C | 0.69 °C

SMILES | ΔTm [1] | ΔTm [2]
COc1ccc(S(=O)(=O)N2CCOCC2)cc1Nc1ccc2c(n1)N(C1CCN(C)CC1)[C@H](C)C(=O)N2C | 1.52 °C | 0.38 °C
OC(c1ccc(-c2ccc(CN3CCN(Cc4ccncc4)CC3)cc2)c(F)c1)(C(F)(F)F)C(F)(F)F | -2.07 °C | 0.64 °C
CCN(C)C(=O)c1ccc2c(c1)NC(=O)/C2=C(\NC1CCN(C)CC1)c1ccccc1 | -1.76 °C | 0.47 °C
COc1nc2ccc([C@@](O)(c3ccccc3)C3CCN(C(C)=O)CC3)cc2c(Cl)c1Cc1ccc(-n2cccn2)cc1 | -1.27 °C | 5.87 °C
COCCN1CCN(CCn2ccc(Nc3ncc4c(n3)-c3c(nn(C)c3-c3ccccc3)C[C@H]4C)n2)CC1 | -0.48 °C | 3.58 °C
CNc1[nH]c(Nc2ccc(C(=O)N3CCOCC3)cc2OC)nc2ncc(Cl)c1-2 | -1.81 °C | 0.62 °C
O=C1CCC(N2Cc3cc(CNC(=O)C(F)(F)c4ccc(Cl)cc4)ccc3C2=O)C(=O)N1 (centres undefined) | -1.67 °C | 0.44 °C
Cc1cc(CN)cc(C)c1-c1ncn(C)c1-c1cncn1C | -1.81 °C | 0.44 °C
COCc1nc2cnc3cc(-c4c(C)noc4C)c(OC[C@H]4CCNC4)cc3c2n1[C@H](C)c1ccccc1 | -1.65 °C | 0.6 °C
COCCN(C)c1ccc(NC(=O)/C=C(\C)c2ccc3ccccc3c2)c(C(=O)O)c1 | -1.83 °C | 1.15 °C
N[C@@H](CC(=O)O)Cn1nnc(-c2ccc(Oc3ncc(Cl)cc3F)cc2)n1 | -3.09 °C | 0.43 °C
CCCCc1oc2ccccc2c1C(=O)c1cc(I)c(OCCN(CC)CC)c(I)c1 | -1.31 °C | 0.79 °C
C[C@H](NC(=O)c1cnc2n1[C@](C)(Cc1ccc(C#N)cc1)C(=O)N2c1cc(Cl)c(F)c(Cl)c1)C(=O)NC1(c2ccccn2)CC1 | -0.27 °C | 0.96 °C
O=C(O)CCCN1CCC[C@H]1COc1ccc(Oc2ccc(Cl)cc2)cc1 | -3.24 °C | 0.41 °C
CN(CCCCCCC1=C(c2cc(F)cc(F)c2)CCCc2cc(O)ccc21)CCCCS(=O)(=O)CCCC(F)(F)F | -1.47 °C | 0.68 °C
CCN(C)S(=O)(=O)Nc1cccc(-c2ccc3c(NC(=O)C4CC4)n[nH]c3c2)c1 | -0.56 °C | 2.38 °C
CCCCCCCC/C=C\CCCCCCCC(=O)NCCO | -0.91 °C | 1.23 °C
Cc1cc(OCc2nc3ccccc3s2)ccc1NC(=O)Nc1ccc(Cl)c(Cl)c1 | -2.19 °C | 0.81 °C
Cc1nn(-c2ccccc2)c(Nc2ccccc2C(=O)O)c1-c1cc2nccnc2c(F)c1F | -2.93 °C | 1.95 °C
CS(=O)(=O)c1cc(C2(NC(=O)c3cncc4c3cnn4-c3ccc(F)cc3)CC2)ccn1 | -2.04 °C | 0.85 °C

SMILES | ΔTm [1] | ΔTm [2]
C=CC(=O)Nc1ccc(C(=O)Nc2[nH]nc3c2CN(C(=O)N[C@H](CN(C)C)c2ccccc2)C3(C)C)cc1 | -0.82 °C | 7.32 °C
Cc1ccc(-n2nc(C(C)(C)C)cc2NC(=O)Nc2ccc(OCCN3CCOCC3)c3ccccc23)cc1 | -3.09 °C and -0.42 °C | 3.18 °C and 3.23 °C
Cc1cc(Cl)ccc1S(=O)(=O)NC[C@H]1C2CCC(CC2)[C@@H]1/C=C\CCCC(=O)O | -2.88 °C | 0.12 °C
C[C@H](CCC(=O)O)[C@H]1CC[C@H]2[C@@H]3CC[C@@H]4C[C@H](O)CC[C@]4(C)[C@H]3C[C@H](O)[C@]12C | -1.82 °C | 0.63 °C
CCC(C)(C)CC[C@H](NC(=O)N1CCOCC1)C(=O)NC1(C#N)CCN(C)CC1 | -3.19 °C | 0.71 °C
Cc1c(NC(=O)c2ccc(C(C)(C)C)cc2)cccc1-c1cn(C)c(=O)c(Nc2ccc(C(=O)N3CCOCC3)cc2)n1 | -4.33 °C | 0.54 °C
C[C@H](CCC(=O)O)[C@H]1CC[C@H]2[C@@H]3[C@H](O)C[C@@H]4C[C@H](O)CC[C@]4(C)[C@H]3C[C@H](O)[C@]12C | -2.19 °C | 0.75 °C
O=C(Nc1ccnc(NC(=O)C2CC2)c1)c1c(Cl)cccc1Cl | -1.28 °C | 3.21 °C
CC1(C)Oc2ncnc(N)c2N=C1c1ccc([C@H]2CC[C@H](CC(=O)O)CC2)cc1 | -2.72 °C | 0.43 °C
CNC(=O)c1c(F)cccc1Nc1nc(Nc2cc3c(cc2OC)CCN3C(=O)CN(C)C)nc2[nH]ccc12 | -2.03 °C | 0.2 °C
O=C(O)C[C@H]1CCn2c1c(Sc1ccc(Cl)cc1)c1ccc(F)cc12 | -3.8 °C | -0.05 °C
NC(=O)c1sc2nc(N3CCC(NC[C@H](O)c4ccccn4)CC3)cc(C(F)(F)F)c2c1N | -0.86 °C | 1.99 °C
O=C(Nc1cccc(Nc2nccc(Nc3cccc(C(F)(F)F)c3)n2)c1)C1CC1 | 0.79 °C | 3.3 °C
C=CC(=O)Nc1ccc2[nH]c(=O)n(C3CCN(Cc4ccc(-c5ccc6c(c5)NC(=O)CO6)cc4)CC3)c2c1 | -0.12 °C | 0.37 °C
CC1=C(C(=O)OCCO)[C@@H](c2ccc(C#N)cc2)NC(=O)N1c1cccc(C(F)(F)F)c1 | -1.72 °C | 0.42 °C
Cc1nc2cccnc2n2c(-c3cc([C@@]4(O)CCCOC4)ccc3Cl)nnc12 | -2.38 °C | 0.59 °C
COc1ccc(Br)cc1S(=O)(=O)NC(=O)/C=C/c1cc(Cl)ccc1Cc1ccc2ccccc2c1 | -10.6 °C | 0.7 °C
CN1C(=O)Cc2ccc(-c3ccc(C[C@@H](C#N)NC(=O)[C@@H]4N[C@H]5CC[C@@H]4C5)c(F)c3)cc21 | 1.91 °C | 0.66 °C
CO[C@H](C)CN1CC[C@@]2(C)c3ccc(O)cc3C[C@@H]1C2(C)C | -2.03 °C | 0.41 °C
C/C=C1\C(=O)CC2C3CCC4=CC(=O)CC[C@]4(C)C3CC[C@]12C (some centres undefined) | -1.36 °C | 
